Structures can show the parent of a compound that is named as a salt.
Columns and labels:
mice (CD-1) = experiment: Forced swimming test in mice with combination of Test Compound and selective serotonergic reuptake inhibitor; type: in vivo; details: CD-1 mice, 30 min after injection, FIG. 5
Protocol: Adult mice (CD-1) were used. The experimental animals were maintained at a light-and-darkness cycle of 12 hours (illuminated from 7 pm to 7 am), a temperature of 22 to 25° C., a relative humidity of 40 to 60%, and free access to water and food. The animals were randomly divided into four groups as follows: • Eight (8) mice as a control group, administered with intraperitoneal injection of saline as a vehicle at a dose volume of 10 ml/kg (Group 1) • Eight (8) mice as an experimental group, administered with intraperitoneal injection of Test Compound at a dose of 5 mg/kg (10 ml/kg) (Group 2) • Eight (8) mice as an experimental group, administered with intraperitoneal injection of fluoxetine hydrochloride at a dose of 10 mg/kg (10 ml/kg) (Group 3) • Eight (8) mice as an experimental group, administered with intraperitoneal injection of Test Compound at a dose of 5 mg/kg (10 ml/kg) and fluoxetine hydrochloride at a dose of 10 mg/kg (10 ml/kg) (Group 4)
To perform a forced swimming test in the mice of Groups 1 to 4, water of 25° C. was filled to a height of 20 cm in a transparent cylinder. […] The results are represented in FIG. 5.
Statistical analysis was carried out by using one-way ANOVA in Prism 7.04.

[1] = tested on: rats in which post-traumatic stress disorder was induced by single prolonged stress (SPS); experiment: Forced swimming test in rats with post-traumatic stress disorder induced by single prolonged stress (SPS); type: in vivo, rats (Sprague-Dawley); details: SPS-induced PTSD rats; 30 mg/kg orally for 15 days; FIGS. 1 to 3
Protocol: Adult male rats (Sprague-Dawley, 200 to 230 g) were used. The experimental animals were maintained at a light-and-darkness cycle of 12 hours (illuminated from 7 pm to 7 am), a temperature of 22 to 25° C., a relative humidity of 40 to 60%, and free access to water and food. […]
(§1) Post-traumatic stress disorder was induced in Group 2 and Group 3 as described above. […] All experimental animals were measured daily for changes in mortality and body weight to determine whether post-traumatic stress disorder was well induced. […]
To carry out a forced swimming test in the rats of Groups 1 to 3, water of 25° C. was filled to a height of 30 cm in a transparent cylinder (20 cm in diameter×50 cm in height). […] After 24 hours, rats were inserted into the cylinder for 5 minutes and the escape behavior of rats was recorded and measured using a video camera. […] Climbing behavior measured the time to climb upward, immobility behavior measured the time to not escape, and swimming behavior measured the time to move horizontally in the cylinder. […]

blood corticoid = experiment: Measurement of corticoid in blood of SPS-induced post-traumatic stress disorder rats (ELISA); type: in vivo, rats (Sprague-Dawley); details: SPS-induced PTSD rats; 30 mg/kg orally for 15 days; vs vehicle-treated PTSD-induced rats; FIG. 4
Protocol: Adult male rats (Sprague-Dawley, 200 to 230 g) were used. The experimental animals were maintained at a light-and-darkness cycle of 12 hours (illuminated from 7 pm to 7 am), a temperature of 22 to 25° C., a relative humidity of 40 to 60%, and free access to water and food. The animals were randomly divided into three groups as follows: • Eight (8) rats as a control group, orally administered with saline as a vehicle at a dose volume of 3 ml/kg (Group 1) • Seven (7) rats in which post-traumatic stress disorder was induced, and saline as a vehicle was then orally administered at a dose volume of 3 ml/kg (Group 2) • Seven (7) rats in which post-traumatic stress disorder was induced, and Test Compound was then orally administered at a dose of 30 mg/kg (3 ml/kg) (Group 3) […]
as §1
Rats were sacrificed rapidly by decapitation on the day after the forced swimming test, and blood was quickly collected via the abdominal aorta. […] The corticoid concentration was measured by enzyme-linked immunoassay (ELISA) using a Novus Biologicals Corticosterone kit. The results were measured by means of an ELISA reader (MultiRead 400) to calculate the concentration of corticoid. […]

SMILES | immobility time in forced swimming test (fluoxetine alone) (mice (CD-1); fluoxetine hydrochloride 10 mg/kg intraperitoneal) | efficacy on symptoms associated with post-traumatic stress disorder (climbing, immobility and swimming behaviors in forced swimming test) [1] | blood corticoid concentration (blood corticoid) | immobility time in forced swimming test (Test Compound alone) (mice (CD-1); 5 mg/kg intraperitoneal)
CNCCC(Oc1ccc(C(F)(F)F)cc1)c1ccccc1 (stereo not shown) [fluoxetine, fluoxetine hydrochloride, reference compound] | ineffective dose |  |  | 
NC(=O)O[C@@H](Cn1ncnn1)c1ccccc1Cl [Test Compound] |  | showing efficacy on alleviating symptoms associated with post-traumatic stress disorder | statistically significant reduction | ineffective dose

Source: patent publication US20220117941A1, “CARBAMATE COMPOUND AND USE OF FORMULATION COMPRISING SAME IN PREVENTING, ALLEVIATING, OR TREATING ACUTE STRESS DISORDER OR POST-TRAUMATIC STRESS DISORDER” (SK BIOPHARMACEUTICALS CO., LTD., priority 2018, published 2022)
